These results are taken from US20250115578A1, “AROMATIC FUSED RING NAV1.8 INHIBITOR, AND USE THEREOF” (CHENGDU KANGHONG PHARMACEUTICAL CO., LTD., priority 2022, published 2025).

Converted amounts (≈) assume the structure as drawn.

The test system of series [1] is postoperative pain model in rats. The series is described as follows: Efficacy test in postoperative pain model in rats (mechanical allodynia, PWT). In kind it is in vivo, Sprague-Dawley male rats. The following applies: single oral 30 mg/kg; for Inhibition of mechanical hyperalgesia induced by postoperative pain model: at 1 h, 2 h and 4 h after administration. Here is the method:
Sprague-Dawley male rats, purchased from Zhejiang Vital River Laboratory Animal Technology Co., LTD
Compounds of the example 10, 14, 16, 31 of the invention were weighted and prepared into solutions of 3 mg/mL using 5% DMSO (Anhui Senrise Technologies Co., Ltd)+30% Solutol HS15 (Beijing Ouhe Technology Co., LTD.)+65% water for injection, and administered at a volume of 10 mL/kg by gavage. The dosage was 30 mg/kg.
Animals were anesthetized with Zoletil 50+ Xylazine Hydrochloride (20 mg/kg+8 mg/kg, intraperitoneally injected). The surgical area on the plantar skin of the left hind paw was disinfected three times with iodophor and 70% ethanol, and the surgery was started after the skin was dry.
A longitudinal incision about 1 cm was made towards the toes starting from 0.5 cm away from the heel of the left hind paw. After the skin was incised, the flexor digitorum brevis was raised and longitudinal blunt injury was caused. After hemostasis by pressing, the wound was sutured. After surgery, animals were placed on an electric warm pad and 5 mL of physiological saline was injected subcutaneously to prevent dehydration. 24 h after modeling, all animals (including the normal control group) were tested for base mechanical allodynia (PWT). The modeling animals without mechanical hypersensitivity (PWT greater than 5 g) were excluded and […] were selected and randomly divided into 5 groups, with 9 animals in each group except 5 in the normal group (negative control group).
The animals were weighed and administered orally at a volume of 10 mL/kg. Except normal control animals, other animals were given a single dose of compounds, and mechanical allodynia was performed by test fibers on all groups of animals at 1 h, 2 h and 4 h after dosing. The rats were placed individually in a plexiglass box with a grid at the bottom to ensure that the paws of the rats could be tested. The rats would acclimate for 15 minutes before the test. After the acclimation was completed, the test fibers were used to test on the plantar center of the rat's left hind paw. Pressed the test fiber vertically against the skin and applied force to bend the fiber for 6 to 8 seconds, with 5 second intervals between each test. The rapid withdrawal of the animal's paws during the test was recorded as a pain response. The animal's paw withdrawal when the fibers left the animal's skin was also recorded as a pain response. If the animal moves or walks around, it's not recorded as a pain response, and the test should be repeated.
Mechanical hyperalgesia was expressed as the paw withdrawal threshold (PWT) in the rat behavioral test, which was calculated according to the following formula:
50% response threshold (g)=(10^(Xf+kδ)/10,000 • Xf=final test fiber value used in the test • k=table value (Chaplan et al. 1994, page 62) • δ=mean deviation
Data were collected with excel software and analyzed with Prism 7.0 (Graph pad software, Inc.) software by two-way ANOVA followed by Dunnett multiple comparison test.

Series [2] in a line: Assay of kinetic solubility. Format: physicochemical. The settings on record: aqueous buffer, kinetic from dmso stock, pH 3.5 phosphate buffer, 25° C.

Turning to `NC(=O)c1cc(NC(=O)c2cc3cc(F)c(F)cc3nc2N2CCCC(F)(F)CC2)ccn1` [Example 10, N-(2-carbamoylpyridin-4-yl)-2-(4,4-difluoroazepan-1-yl)-6,7-difluoroquinoline-3-carboxamide], in series [1], the “Inhibition of mechanical hyperalgesia induced by postoperative pain model” value (shortened to “Inhibition”) is given as “inhibited mechanical hyperalgesia”. Consider `NS(=O)(=O)c1cccc(NC(=O)c2cc3cc(F)c(F)cc3nc2N2CCCC(F)(F)CC2)c1` [Example 16, 2-(4,4-difluoroazepan-1-yl)-6,7-difluoro-N-(3-sulfamoylphenyl) quinoline-3-carboxamide], for which the “Efficacy compared with example compound 31” value in series [1] (after 1 h of administration) was “significantly more effective than example compound 31”. Besides, the “Inhibition” value in series [1] is given as “inhibited mechanical hyperalgesia”. In series [2], `NC(=O)c1cc(NC(=O)c2nc3ccccc3nc2N2CCCC(F)(F)CC2)ccc1F` [Example 02, N-(3-carbamoyl-4-fluorophenyl)-3-(4,4-difluoroazepan-1-yl)quinoxaline-2-carboxamide] came in with a kinetic solubility at 2 h of 2.8 µM (≈ 1.24 µg/mL).

In the case of `NC(=O)c1cc(NC(=O)c2nc3ccccc3nc2N2CCCC(F)(F)CC2)ccn1` [Example 05, N-(2-carbamoylpyridin-4-yl)-3-(4,4-difluoroazepan-1-yl)quinoxaline-2-carboxamide], the kinetic solubility at 2 h in series [2] worked out at 0.39 µM (≈ 0.166 µg/mL). Consider `NS(=O)(=O)c1cc(NC(=O)c2cc3ccccc3nc2N2CCCC(F)(F)CC2)ccn1` [Example 14, 2-(4,4-difluoroazepan-1-yl)-N-(2-sulfamoylpyridine-4-yl) quinoline-3-carboxamide], for which, in series [1], the “Inhibition” value is “inhibited mechanical hyperalgesia”. The “Efficacy compared with example compound 31” value in series [1] (at 1 h and 4 h after administration) is “significantly stronger than that of example compound 31”. Moreover, the solubility (kinetic) at 2 h in series [2] amounted to 271 µM (≈ 125 µg/mL). The compound `NC(=O)c1cc(NC(=O)c2cc3ccccc3nc2N2CCCC(F)(F)CC2)ccn1` [Example 08, N-(2-carbamoylpyridin-4-yl)-2-(4,4-difluoroazepan-1-yl)quinoline-3-carboxamide] came in with a solubility (kinetic) at 2 h in series [2] of 175 µM (≈ 74.5 µg/mL).

For orientation: kinetic solubility means solubility judged after dilution from a stock solution rather than from solid.
